Test results from ChEMBL document CHEMBL1201862, “PubChem BioAssay data set” (2004).
The source made the active and inactive calls. Cut-off read from the data, not from the text of the source, for most assays here: actives have a measured IC50 and inactives only a lower limit.

Assays:
[1] = test system: INS1; test: beta cell apoptosis inhibitors, cytokine rescue, dose response, luminescence, retest (AID 449756); assay type: functional, cell-based; conditions: Rattus norvegicus;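 note: cell death triggered by IL-1 beta plus TNF-alpha plus IFN-gamma mixture; protective hits raise ATP signal compared with cytokine alone wells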
[2] = biological target: T1, Caspase-3 (Homo sapiens, UniProt P42574); assay type: functional;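 note: Dose-response selectivity test against caspase-3 for candidate inhibitors of sentrin-specific proteases (SENPs)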
T1 sequence (P42574 whole entry): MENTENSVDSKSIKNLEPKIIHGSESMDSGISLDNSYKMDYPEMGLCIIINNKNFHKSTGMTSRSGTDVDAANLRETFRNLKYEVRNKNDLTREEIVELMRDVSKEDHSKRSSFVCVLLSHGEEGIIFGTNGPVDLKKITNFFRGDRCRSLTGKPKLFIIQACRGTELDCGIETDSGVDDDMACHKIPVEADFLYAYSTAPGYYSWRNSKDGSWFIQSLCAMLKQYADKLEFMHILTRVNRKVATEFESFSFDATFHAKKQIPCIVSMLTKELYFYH

[3] = biological target: T2, Sentrin-specific protease 8 (Homo sapiens, UniProt Q96LD8); assay type: functional;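 note: luminescence read-out of SENP8 inhibition, dose-response confirmation following an ultra-high-throughput screen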
T2 sequence (Q96LD8 whole entry): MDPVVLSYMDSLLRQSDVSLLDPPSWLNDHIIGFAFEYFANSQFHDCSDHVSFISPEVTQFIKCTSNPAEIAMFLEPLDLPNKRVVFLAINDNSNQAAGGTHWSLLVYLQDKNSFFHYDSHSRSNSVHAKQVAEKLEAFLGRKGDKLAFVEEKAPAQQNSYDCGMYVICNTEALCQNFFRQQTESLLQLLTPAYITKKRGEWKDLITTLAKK

[4] = biological target: T3, Apoptotic protease-activating factor 1 (Homo sapiens, UniProt O14727); assay type: functional
T3 sequence (O14727 whole entry): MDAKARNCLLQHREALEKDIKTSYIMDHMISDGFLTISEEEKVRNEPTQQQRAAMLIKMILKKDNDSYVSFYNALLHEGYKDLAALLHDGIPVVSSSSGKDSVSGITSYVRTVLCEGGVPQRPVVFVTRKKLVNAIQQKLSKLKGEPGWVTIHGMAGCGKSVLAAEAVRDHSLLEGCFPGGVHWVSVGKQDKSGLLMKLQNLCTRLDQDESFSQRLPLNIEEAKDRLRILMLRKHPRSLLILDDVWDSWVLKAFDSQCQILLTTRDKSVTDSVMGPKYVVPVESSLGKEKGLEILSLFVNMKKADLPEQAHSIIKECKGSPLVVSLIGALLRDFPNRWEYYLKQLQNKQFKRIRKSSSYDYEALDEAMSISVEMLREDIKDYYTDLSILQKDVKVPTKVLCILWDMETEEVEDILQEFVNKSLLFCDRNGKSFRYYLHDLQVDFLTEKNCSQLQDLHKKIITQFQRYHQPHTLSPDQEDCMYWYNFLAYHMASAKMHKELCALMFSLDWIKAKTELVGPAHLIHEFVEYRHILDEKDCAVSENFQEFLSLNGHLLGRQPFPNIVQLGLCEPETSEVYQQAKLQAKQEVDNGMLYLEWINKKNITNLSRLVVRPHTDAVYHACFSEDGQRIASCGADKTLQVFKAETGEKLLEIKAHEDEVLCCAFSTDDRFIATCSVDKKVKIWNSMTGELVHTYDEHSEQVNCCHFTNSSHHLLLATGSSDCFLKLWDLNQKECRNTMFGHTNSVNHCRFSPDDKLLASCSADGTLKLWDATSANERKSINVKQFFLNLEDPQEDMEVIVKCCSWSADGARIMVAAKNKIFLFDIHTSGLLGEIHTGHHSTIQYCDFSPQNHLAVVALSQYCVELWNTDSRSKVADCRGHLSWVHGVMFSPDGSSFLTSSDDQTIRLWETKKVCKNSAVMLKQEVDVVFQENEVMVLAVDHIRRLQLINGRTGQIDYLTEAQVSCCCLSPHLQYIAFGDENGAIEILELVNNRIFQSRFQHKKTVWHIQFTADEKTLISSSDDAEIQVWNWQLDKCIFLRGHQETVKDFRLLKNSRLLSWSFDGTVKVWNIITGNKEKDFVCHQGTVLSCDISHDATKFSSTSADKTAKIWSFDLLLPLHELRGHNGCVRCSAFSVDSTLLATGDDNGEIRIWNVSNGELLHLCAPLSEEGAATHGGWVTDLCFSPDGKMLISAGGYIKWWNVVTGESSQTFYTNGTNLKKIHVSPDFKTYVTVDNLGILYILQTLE

[5] = biological target: T4, Tyrosyl-DNA phosphodiesterase 2 (Homo sapiens, UniProt O95551); test: human TDP2 enzyme inhibitors, dose response, biochemical, epi absorbance, IC50 (AID 743297)
T4 sequence (O95551 whole entry): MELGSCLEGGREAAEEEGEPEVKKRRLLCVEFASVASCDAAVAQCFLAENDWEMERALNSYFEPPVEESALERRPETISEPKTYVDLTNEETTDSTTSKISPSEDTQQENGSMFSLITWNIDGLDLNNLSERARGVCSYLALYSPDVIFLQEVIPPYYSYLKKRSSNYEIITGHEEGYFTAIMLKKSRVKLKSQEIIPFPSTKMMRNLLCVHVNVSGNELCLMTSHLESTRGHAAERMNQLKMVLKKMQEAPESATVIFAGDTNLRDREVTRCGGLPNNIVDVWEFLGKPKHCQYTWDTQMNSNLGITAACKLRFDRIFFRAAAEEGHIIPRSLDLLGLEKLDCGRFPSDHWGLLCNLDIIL

Row | Structure (SMILES) | AC50 [1] | IC50 [2] | IC50 [3] | IC50 [4] | IC50 [5]
1 | COC(=O)C[C@]1(C(=O)OC)CN(C#N)N(c2ccc(Cl)cc2)C12c1ccccc1-c1ccccc12 | 2.77 µM (active) |  |  |  | 
2 | O=C(Nc1ccc(C#Cc2ccccc2)cc1)C1CC1 |  | 43.6 µM (active) | > 100 µM (inactive) |  | 
3 | CCCCn1c(NC(=O)c2ccco2)c(C(=O)OCC)c2nc3ccccc3nc21 |  | 15.8 µM (active) | 4.36 µM (active) | 13 µM (active) | > 128 µM (inactive)
4 | Cc1ccccc1NC1=C/C(=N\S(=O)(=O)c2ccc(C(=O)O)cc2)c2ccccc2C1=O | 4.38 µM (active) |  |  | 1.59 µM (active) | 1.41 µM (active)
5 | Cc1ccc(NC2=C/C(=N/S(=O)(=O)c3cccs3)c3ccccc3C2=O)cc1 | 0.72 µM (active) | 2.1 µM (active) | 0.244 µM (active) | 0.453 µM (active) | 3.3 µM (active)
6 | COc1ccc(-c2cc(-c3ccc(C)cc3)[nH]n2)c(O)c1 |  | 76.5 µM (active) | 34.6 µM (active) |  | 
